Holding throughout (format): in vivo
Conditions in all cases: 1000 g ai/ha, visual rating after approx. 10 d, 0 to 100 scale, 0 no effect, 100 complete control

Experiment [1] has as its system morningglory (Ipomoea spp.). The experiment can be described thus: Test A preemergence, morningglory. The text has this: (§1) Seeds of plant species selected from barnyardgrass (Echinochloa crus-galli), crabgrass (large crabgrass, Digitaria sanguinalis), kochia (Kochia scoparia), ragweed (common ragweed, Ambrosia elatior), morningglory (Ipomoea spp.), velvetleaf (Abutilon theophrasti), ryegrass, Italian (Italian ryegrass, Lolium multiflorum), foxtail, giant (giant foxtail, Setaria faberii), wheat (Triticum aestivum), corn (Zea mays), and pigweed (Amaranthus retroflexus), were planted into a blend of loam soil and sand and treated preemergence with a directed soil spray using test chemicals formulated in a non-phytotoxic solvent mixture which included a surfactant. At the same time, plants selected from these crop and weed species and also blackgrass (Alopecurus myosuroides), and galium (catchweed bedstraw, Galium aparine), were planted in pots containing the same blend of loam soil and sand and treated with postemergence applications of test chemicals formulated in the same manner. Plants ranged in height from 2 to 10 cm and were in the one- to two-leaf stage for the postemergence treatment. Treated plants and untreated controls were maintained in a greenhouse for approximately 10 d, after which time all treated plants were compared to untreated controls and visually evaluated for injury. Plant response ratings, summarized in Table A, are based on a 0 to 100 scale where 0 is no effect and 100 is complete control. A dash (-) response means no test result.

Experiment [2] relates to foxtail, giant (giant foxtail, Setaria faberii). The experiment can be described thus: Test A postemergence, giant foxtail. A digest of the protocol: (§2)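 Visual injury rating on a 0–100 scale (0 = no effect, 100 = complete control) versus untreated controls, ~10 d after treatment in greenhouse. Preemergence: directed soil spray over seeded loam/sand. Postemergence: foliar spray at one- to two-leaf stage, 2–10 cm tall.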

Experiment [3] has as its system corn (Zea mays). Kind of experiment: Test A preemergence, corn.
From the text: as §1

The subject of experiment [4] is foxtail, giant (giant foxtail, Setaria faberii). Kind of experiment: Test A preemergence, giant foxtail. The method, boiled down: as §2
Experiment [5] has as its system wheat (Triticum aestivum). The experiment can be described thus: Test A preemergence, wheat.
From the text: as §1

For experiment [6], the system named is barnyardgrass (Echinochloa crus-galli). Kind of experiment: Test A preemergence, barnyardgrass. A digest of the protocol:
as §2

In experiment [7] the test system is morningglory (Ipomoea spp.). The experiment can be described thus: Test A postemergence, morningglory.
From the text: as §1

In experiment [8] the test system is pigweed (Amaranthus retroflexus). The experiment can be described thus: Test A preemergence, pigweed. The method, boiled down:
as §2

For experiment [9], the system named is velvetleaf (Abutilon theophrasti). Kind of experiment: Test A preemergence, velvetleaf.
From the text: as §1

For experiment [10] the test system is unchanged. The experiment can be described thus: Test A postemergence, velvetleaf.
From the text: as §1

Experiment [11] has as its system wheat (Triticum aestivum). The experiment can be described thus: Test A postemergence, wheat. The method, boiled down:
as §2

In experiment [12] the test system is barnyardgrass (Echinochloa crus-galli). The experiment can be described thus: Test A postemergence, barnyardgrass. A digest of the protocol: as §2
For experiment [13], the system named is pigweed (Amaranthus retroflexus). Kind of experiment: Test A postemergence, pigweed. The method, boiled down: as §2
In experiment [14] the test system is corn (Zea mays). The experiment can be described thus: Test A postemergence, corn. The method, boiled down:
as §2

Experiment [15] has as its system crabgrass (large crabgrass, Digitaria sanguinalis). Kind of experiment: Test A postemergence, crabgrass.
From the text: as §1

Experiment [16] has the same test system. The experiment can be described thus: Test A preemergence, crabgrass.
From the text: as §1

Each structure is given as a SMILES string.

In the case of `O=C(Nc1ccccc1F)C1C(=O)OCC1c1ccc(F)cc1` (racemic) [Compound 2], the “Plant response rating, Morningglory” value in [1] and in experiment [7] was 0 throughout. Also, the “Plant response rating, Foxtail, Giant” value turned out to be 0 in [2] and 50 in experiment [4]. Besides, the “Plant response rating, Corn” value in [3] and in [14] was 0 throughout. The “Plant response rating, Wheat” value in experiment [5] and in [11] was 0 in each case. Also, the entries for the “Plant response rating, Barnyardgrass” value in experiment [6] and in experiment [12] were 30 and 0, respectively. For the same compound, the “Plant response rating, Pigweed” value in [8] and in [13] was 0 in each case. Moreover, the “Plant response rating, Velvetleaf” value in experiment [9] and in experiment [10] was 0 throughout. Further, the “Plant response rating, Crabgrass” value in [15] was found to be 40; in experiment [16] it was 80.

On to `Cc1ccccc1NC(=O)C1C(=O)OCC1c1ccc(F)cc1` (racemic) [Compound 5], for which the “Plant response rating, Morningglory” value in experiment [1] and in experiment [7] was 0 in each case. Further, the entries for the “Plant response rating, Foxtail, Giant” value in [2] and in experiment [4] were 60 and 70, respectively. The “Plant response rating, Corn” value in experiment [3] and in experiment [14] was 0 each time. Moreover, the “Plant response rating, Wheat” value in experiment [5] and in experiment [11] was 0 in each case. Moreover, the “Plant response rating, Barnyardgrass” value in experiment [6] worked out at 60; in experiment [12] it was 50. For the same compound, the “Plant response rating, Pigweed” value in [8] and in [13] was 0 each time. For the same compound, the “Plant response rating, Velvetleaf” value in experiment [9] and in experiment [10] was 0 each time. The “Plant response rating, Crabgrass” value in experiment [15] and in experiment [16] was 80 each time.

The record behind these values is US10582709B2, “Butyrolactones as herbicides” (FMC Corporation, priority 2015, dated 2020).
